Source: ChEMBL document CHEMBL1201862, “PubChem BioAssay data set” (2004)
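Dose response: 5 concentrations. Exposure: 48 h. Format: 96-well plates. Endpoint: linear interpolation; highest concentration if not reached. The concentration for 50% growth inhibition is given as GI50.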 Calls of active or inactive are those of the source. Cut-off read from the data, not from the text of the source: active = GI50 up to about 1.1 µM and inactive = higher.

Columns and labels:
Assay in all cases: DTP human tumour cell line panel, 48 h
HOP-92 = tested on: HOP-92
OVCAR-8 = tested on: OVCAR-8
HT-29 = tested on: HT-29
UACC-257 = tested on: UACC-257
NCI-H460 = tested on: NCI-H460
ACHN = tested on: ACHN
SF-268 = tested on: SF-268
SN12C = tested on: SN12C
SNB-78 = tested on: SNB-78
SF-539 = tested on: SF-539
SNB-75 = tested on: SNB-75
DMS-114 = tested on: DMS-114
DLD-1 = tested on: DLD-1
XF498 = tested on: XF498
CAKI-1 = tested on: CAKI-1

Measured: GI50

Nc1cc(-c2ccccc2)nn1-c1nsc2ccccc12
inactive: HOP-92 63.4 µM | OVCAR-8 92.9 µM | HT-29 91.2 µM | UACC-257 > 100 µM | NCI-H460 60.8 µM | ACHN > 100 µM | SF-268 58.9 µM | SN12C 99.8 µM | SNB-78 68.1 µM | SF-539 > 100 µM | SNB-75 19.7 µM | DMS-114 > 100 µM

CNC(=O)CN1CC(=O)N(C)C(=O)C1
inactive: DLD-1 > 100 µM | HOP-92 > 100 µM | XF498 > 100 µM | CAKI-1 > 100 µM | SNB-78 > 100 µM | SNB-75 > 100 µM

CC1(C)Cc2c(C#N)c(N)c3c(c2CO1)C(=O)OC3=O
inactive: OVCAR-8 > 100 µM | HT-29 > 100 µM | NCI-H460 > 100 µM | XF498 > 100 µM | ACHN > 100 µM | SF-268 > 100 µM | CAKI-1 > 100 µM | SN12C > 100 µM | SF-539 > 100 µM | DMS-114 > 100 µM
